Our source for the IC50 values is BindingDB's records for doi:10.1016/j.bmc.2010.01.042 (Nerviano Medical Sciences, 2010).

The IC50 is the concentration needed to halve the response being measured. Read a low IC50 as greater potency.

The experiment addresses 3-phosphoinositide-dependent protein kinase 1 (Homo sapiens) (UniProt O15530). The experiment can be described thus: Inhibition of PDK1 by scintillation proximity assay. A general note: In a scintillation proximity assay essentially only radioactivity close to the scintillant gives light.

Where only a bound is given, the exact number is not on record here.

Turning to `CC(C)CC(=O)Nc1[nH]nc2c1CN(C(=O)C1CCN(C)CC1)C2(C)C`, the IC50 is > 10 µM.
For the compound `CC(C)(C)C(=O)N1Cc2c(n[nH]c2NC(=O)c2cc(F)cc(F)c2)C1(C)C` [N-[5-(2,2-Dimethylpropanoyl)-6,6-dimethyl-1,4,5,6-tetrahydropyrrolo[3,4-c]pyrazol-3-yl]-3,5-difluorobenzamide], the IC50 is > 10 µM.
